Molecules are shown by their SMILES. Read-outs that look alike come from different tables or passages of the source.

The subject of this assay is TNFα secretion in white blood cells from human buffy coat stimulated with phorbol 12-myristate 13-acetate and ionomycin. Put plainly: TNFα secretion assay. The note with it: Homo sapiens; for inhibition at 0.5 µM: read-out: % inhibition of TNFα secretion, Rolipram 0.5 μM; for inhibition at 1 µM: read-out: % inhibition of TNFα secretion, Rolipram 1 μM.
Where [1] appears, read: Bromodiphenhydramine HCl μM r5-r13: 0,0.21,0.43,0.85,1.7,3.4,6.8,14,27.
Where [2] appears, read: Cyproheptadine HCl μM r5-r13: 0,0.24,0.48,0.96,1.9,3.9,7.7,15,31.
The mark [3] stands for this setting: Loratadine μM r5-r13: 0,0.2,0.41,0.82,1.6,3.3,6.5,13,26.
The mark [4] stands for this setting: Thiethylperazine Maleate μM r5-r13: 0,0.2,0.39,0.78,1.6,3.1,6.3,13,25.

Method: Drugs were added to the indicated concentration. […] The plate was then washed again with 0.1% Tween 20/PBS. An HRP-luminescent substrate was added to each well, and the light intensity of each well was measured using a plate luminometer.

Turning to `COc1ccc(C2CNC(=O)C2)cc1OC1CCCC1` (centres unmarked) [Rolipram], the inhibition (in general, the percentage by which the read-out fell short of the control) at 0.5 µM reads like this: under setting [1], 37%; under setting [2], 44%; under setting [3], 43%; under setting [4], 38%. The inhibition at 1 µM by setting is: under setting [1], 44%; under setting [2], 38%; under setting [3], 50%; under setting [4], 39%.

Source of the values: patent US20050192261A1, “Methods and reagents for the treatment of immunoinflammatory disorders” (priority 2003, published 2005).
